In patent US20090030049A1, “MEDICAMENT FOR GENITAL HERPES” (ASTELLAS PHARMA INC., priority 2005, published 2009):
Several values for one entry are separate records, joined by “and”; a condition that tells them apart may be missing. Equal values may be shown once.

System: HSV-2 strain G
Assay: Therapeutic activity upon guinea pig HSV-2 genital herpes model (vaginal lesion score)
Type: in vivo
Conditions: oral, twice a day, dose inhibiting 50% of average vaginal lesion score of placebo group at 9 days after infection, Hartley female guinea pig; for ED50: Human alphaherpesvirus 2, in Cavia porcellus, started after development of vaginal lesions (day 4 to 8 after infection), read-out: Lesion inhibitory activity (ED50; mg/kg) (4 to 8 days of administration after infection); for Comparative test (administration before the development of lesions) (ED50; mg/kg) (0 to 4 days of administration after infection): started 3 hours after HSV-2 infection until 4 days after infection
Procedure: In vivo activity of the pharmaceutical composition of the present invention was tested using an HSV-2 infected guinea pig vagina genital herpes model in reference to the method of L. Stanberry et al. (Journal of Infectious Disease, 1982, 146, 397-404). An absorbent cotton swab was impregnated with an HSV-2 virus suspension (HSV-2 strain G 1.25×10^5 PFU/ml) and inserted into the vagina of a Hartley female guinea pig (4 weeks of age) under diethyl ether anesthesia, thereby infecting it with HSV-2. Vagina lesions and general conditions caused by the HSV-2 infection were scored based on the following 6 steps and evaluated every day from the infected day (0 day) to 9 days after the infection.
Score 1: formation of approximately 1 or 2 small blisters which can be observed with the naked eye
Score 2: formation of blisters in 10 to 50% per vaginal visible area
Score 3: formation of blisters in 50 to 100% per vaginal visible area
Score 4: formation of ulcers in 10 to 50% per vaginal visible area
Score 5: formation of ulcers in 50 to 100% per vaginal visible area
Score 6: paralysis of hind legs or death
Only guinea pigs in which the vaginal lesion score was judged to be 1 or 2 and development of lesions therefore was found were selected after the development of vaginal lesions by HSV-2 infection, namely 4 days after the infection, their grouping was carried out in such a manner that average values of the scores became even, and then administration of each compound to be tested was started. Each compound to be tested was made into a methyl cellulose suspension and orally administered twice a day for 5 days of from the 4th day to 8th day after the infection. Additionally, in order to compare degrees of the therapeutic effect due to difference in the administration starting period, a comparative test was simultaneously carried out in which the administration was started before the development of vaginal lesions (3 hours after the HSV-2 infection) and the administration was carried out in the same manner until 4 days after the infection. Each test was carried out using 10 animals per group of the guinea pigs and using VCV as the comparative compound.
Regarding the average vaginal lesion score of 9 days after the HSV-2 infection, the dose of each compound to be tested which inhibits 50% of the score of the placebo administration group (ED50 value; mg/kg, twice a day) was calculated, with the results shown in the following table.

SMILES | ED50 [mg/kg] | Comparative test (administration before the development of lesions) (ED50; mg/kg) (0 to 4 days of administration after infection)
Cc1ccc(N(CC(=O)Nc2ccc(-c3cocn3)cc2)C(=O)C2CCS(=O)(=O)CC2)cc1 [Preparation 2, N-(4-methylphenyl)-N-(2-{[4-(1,3-oxazol-4-yl)phenyl]amino}-2-oxoethyl)tetrahydro-2H-thiopyran-4-carboxamide 1,1-dioxide] | 3.1 | 1.3 mg/kg
Cc1cccc(C)c1N(CC(=O)Nc1ccc(-c2ncon2)cc1)C(=O)C1CCS(=O)(=O)CC1 [Preparation 27, N-(2,6-dimethylphenyl)-N-(2-{[4-(1,2,4-oxadiazol-3-yl)phenyl]amino}-2-oxoethyl)tetrahydro-2H-thiopyran-4-carboxamide 1,1-dioxide] | 2.5 | 1.2 mg/kg
CC(C)[C@H](N)C(=O)OCCOCn1cnc2c(=O)[nH]c(N)nc21 [VCV, valacyclovir, reference compound] | ≥ 300 | 117 mg/kg and 50 mg/kg
